Reference: patent publication US8808500B2, “Method for the use of oxidants for microbial control under reducing conditions” (Lonza Inc., priority 2011, dated 2014)

Assays:
[1] = ORP of sodium borohydride solution over time after adding aldehyde donor; format: physicochemical
Procedure: Aqueous solutions containing sodium borohydride were mixed at 21° C. to obtain a solution having an initial borohydride content (as NaBH4) of 30-50 ppm, an alkalinity (as CaCO3) of 400 ppm, and a pH of 8.5-9.5. The temperature of the solution was maintained at 21° C. and the ORP of the solution was measured at specified time intervals. The procedure consisted of adding a known amount of aldehyde donor, such as dimethyloldimethylhydantoin or glyoxal, to the samples at a known molar ratio with respect to the borohydride content and following the time-dependence of the ORP.
(§1) For comparison, the residual total halogen (as Cl2) was analyzed without the use of dimethyloldimethylhydantoin.

[2] = Residual total halogen (DPD) after adding sodium hypochlorite to borohydride solution; format: physicochemical; conditions: for Total Halogen with DMDMH: borohydride solution treated with DMDMH; for Total Halogen without DMDMH: borohydride solution, no DMDMH
Procedure: The remaining halogen concentration was then measured by standard DPD total halogen methodologies over time.
as §1

[3] = 2 min after addition of sodium hypochlorite
[4] = 43 min after addition of sodium hypochlorite

Row | Structure (SMILES) | ORP - DMDMH treated [1, 3] [mV] | ORP - DMDMH treated [1, 4] [mV] | Total Halogen with DMDMH [2, 3] [ppm as Cl2] | Total Halogen with DMDMH [2, 4] [ppm as Cl2] | Total Halogen without DMDMH [2, 3] [ppm as Cl2] | Total Halogen without DMDMH [2, 4] [ppm as Cl2]
1 | CC1(C)C(=O)N(CO)C(=O)N1CO [DMDMH, dimethyloldimethylhydantoin] | −251 | −77 | 1.59 | 1.33 | – | –
2 | OCl [sodium hypochlorite, reference compound] | – | – | – | – | <0.1 | <0.1
